Results from patent US10450292B2, “Inhibitors of bacterial RNA polymerase: arylpropanoyl, arylpropenoyl, and arylcyclopropanecarboxyl phloroglucinols” (Rutgers, The State University of New Jersey, priority 2015, dated 2019).
Values after ≈ are worked out from the molar mass of the structure shown.

How the values were obtained:
[1] = test system: Enterococcus faecalis ATCC 19433; experiment: Inhibition of bacterial growth in culture, spiral gradient endpoint assay (MIC); assay type: cell-based; conditions: for MIC E. faecalis H37Rv: Mueller-Hinton II agar, 16 h at 37° C.; for MIC: Enterococcus faecalis, ATCC 19433 /, 16 h, read-out: MIC E. faecalis, Mueller-Hinton II agar, 16 h at 37° C.
Description: J. Microbiol. Meths. […] Int. J. Exp. Clin. Chemother. […] Adv.

[2] = test system: Escherichia coli D21f2tolC; experiment: microbe, parasite or virus in culture; conditions: 16 h, read-out: MIC E. coli D21f2tolC, Mueller-Hinton II agar, 16 h at 37° C.
[3] = test system: Staphylococcus aureus ATCC 12600; experiment: Inhibition of bacterial growth in culture, spiral gradient endpoint assay (MIC); conditions: for MIC: Staphylococcus aureus, ATCC12600, 16 h, read-out: MIC S. aureus 12600, Mueller-Hinton II agar, 16 h at 37° C.
[4] = test system: Escherichia coli D21f2tolC; conditions: Mueller-Hinton II agar, 16 h at 37° C.

SMILES | MIC E. faecalis H37Rv [1] [µg/mL] | MIC [2] [µg/mL] | MIC [3] [µg/mL] | MIC [1] [µg/mL] | MIC E. coli D21f2tolC [4] [µg/mL] | MIC S. aureus 12600 ([3]; Mueller-Hinton II agar, 16 h at 37° C.) [µg/mL]
CCC1=C(O)C(CC)(CC)C(=O)C(C(=O)C2CC2c2ccc(Cl)cc2)=C1O (stereo not drawn) [Example 81, 2-(2-(4-chlorophenyl)cyclopropanecarbonyl)-4,6,6-triethyl-3,5-dihydroxycyclohexa-2,4-dienone] | 11 (≈ 28.3 µM) | 2.2 (≈ 5.66 µM) | 4.5 (≈ 11.6 µM) | – | – | –
CCC1=C(O)C(CC)(CC)C(=O)C(C(=O)C2CC2c2ccc(Cl)cc2C)=C1O (stereo not drawn) [Example 82, 2-(2-(4-chloro-2-methylphenyl)cyclopropanecarbonyl)-4,6,6-triethyl-3,5-dihydroxycyclohexa-2,4-dienone] | – | 1.2 (≈ 2.98 µM) | 3.6 (≈ 8.93 µM) | 12 (≈ 29.8 µM) | – | –
CC1=C(O)C(C)(C)C(=O)C(C(=O)C2CC2c2ccc(C(F)(F)F)cc2C(F)(F)F)=C1O (stereo not drawn) [Example 83, 2-(2-(2,4-bis(trifluoromethyl)phenyl)cyclopropanecarbonyl)-3,5-dihydroxy-4,6,6-trimethylcyclohexa-2,4-dienone] | – | 2.4 (≈ 5.35 µM) | 5 (≈ 11.2 µM) | > 40 | – | –
CCC1=C(O)C(CC)(CC)C(=O)C(C(=O)C2CC2c2ccc(Cl)cc2C(F)(F)F)=C1O (stereo not drawn) [Example 84, 2-(2-(4-chloro-2-(trifluoromethyl)phenyl)cyclopropanecarbonyl)-4,6,6-triethyl-3,5-dihydroxycyclohexa-2,4-dienone] | – | 0.44 (≈ 0.963 µM) | 1.3 (≈ 2.85 µM) | 2.1 (≈ 4.6 µM) | – | –
CC1=C(O)C(C)(C)C(=O)C(C(=O)C2CC2c2ccc(Oc3ccc(F)cc3)cc2C(F)(F)F)=C1O (stereo not drawn) [Example 85, 2-(2-(4-(4-fluorophenoxy)-2-(trifluoromethyl)phenyl)cyclopropanecarbonyl)-3,5-dihydroxy-4,6,6-trimethylcyclohexa-2,4-dienone] | – | 4 (≈ 8.16 µM) | 12 (≈ 24.5 µM) | > 40 | – | –
CCCC1=C(O)C(CCC)(CCC)C(=O)C(C(=O)C2CC2c2ccc(C(F)(F)F)cc2C(F)(F)F)=C1O (stereo not drawn) [Example 86, 2-(2-(2,4-bis(trifluoromethyl)phenyl)cyclopropanecarbonyl)-3,5-dihydroxy-4,6,6-tripropylcyclohexa-2,4-dienone] | – | 2.2 (≈ 4.13 µM) | 0.65 (≈ 1.22 µM) | 1.7 (≈ 3.19 µM) | – | –
CCC1=C(O)C(CC)(CC)C(=O)C(C(=O)C2CC2c2ccc(C(F)(F)F)cc2C(F)(F)F)=C1O (stereo not drawn) [Example 87, 2-(2-(2,4-bis(trifluoromethyl)phenyl)cyclopropanecarbonyl)-4,6,6-triethyl-3,5-dihydroxycyclohexa-2,4-dienone] | – | 3.2 (≈ 6.52 µM) | 5.9 (≈ 12 µM) | > 40 | – | –
CC1=C(O)C(C)(C)C(=O)C(C(=O)C2CC2c2ccc(C(F)(F)F)cc2)=C1O (stereo not drawn) [Example 88, 3,5-dihydroxy-4,6,6-trimethyl-2-(2-(4-(trifluoromethyl)phenyl)cyclopropanecarbonyl)cyclohexa-2,4-dienone] | – | > 40 | > 40 | > 40 | – | –
CCC1=C(O)C(CC)(CC)C(=O)C(C(=O)C2CC2c2ccc(Cl)cc2)=C1O (stereo not drawn) [Example 89, 2-(2-(4-chlorophenyl)cyclopropanecarbonyl)-4,6,6-triethyl-3,5-dihydroxycyclohexa-2,4-dienone] | >40 | – | – | – | 3.0 (≈ 7.71 µM) | 7.9 (≈ 20.3 µM)
CCC1=C(O)C(CC)(CC)C(=O)C(C(=O)C2CC2c2ccc(C(F)(F)F)cc2)=C1O (stereo not drawn) [Example 90, 4,6,6-triethyl-3,5-dihydroxy-2-(2-(4-(trifluoromethyl)phenyl)cyclopropanecarbonyl)cyclohexa-2,4-dienone] | – | 1.1 (≈ 2.6 µM) | 1.4 (≈ 3.31 µM) | 2.3 (≈ 5.44 µM) | – | –
CCCC1=C(O)C(CCC)(CCC)C(=O)C(C(=O)C2CC2c2ccc(C(F)(F)F)cc2)=C1O (stereo not drawn) [Example 91, 3,5-dihydroxy-4,6,6-tripropyl-2-(2-(4-(trifluoromethyl)phenyl)cyclopropanecarbonyl)cyclohexa-2,4-dienone] | – | 0.66 (≈ 1.42 µM) | 0.36 (≈ 0.775 µM) | 0.41 (≈ 0.883 µM) | – | –
CC1=C(O)C(C)(C)C(=O)C(C(=O)C2CC2c2ccc(Oc3ccc(F)cc3)cc2)=C1O (stereo not drawn) [Example 92, 2-(2-(4-(4-fluorophenoxy)phenyl)cyclopropanecarbonyl)-3,5-dihydroxy-4,6,6-trimethylcyclohexa-2,4-dienone] | – | 5.5 (≈ 13 µM) | 21 (≈ 49.7 µM) | > 40 | – | –
